PubChem BioAssay AID651650 (Sanford-Burnham Center for Chemical Genomics, 2012)
Active and inactive are the calls of the source.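 How the source made its calls: active means mean IC50 below 20 µM in each of the two panels, so potent in both; inactive means the rest.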

Biological target: Neuropilin-1 (Homo sapiens) (UniProt O14786)
Assay: blockers of CendR peptide binding to NRP-1 – biochemical, FP and AlphaScreen panel, dose response (AID 651650)
Settings: NRP-1 b1b2 / RPARPAR peptide binding, FP or AlphaScreen; AlphaScreen, mean of runs

Sequence of Neuropilin-1 (Homo sapiens) (O14786 whole entry, looked up): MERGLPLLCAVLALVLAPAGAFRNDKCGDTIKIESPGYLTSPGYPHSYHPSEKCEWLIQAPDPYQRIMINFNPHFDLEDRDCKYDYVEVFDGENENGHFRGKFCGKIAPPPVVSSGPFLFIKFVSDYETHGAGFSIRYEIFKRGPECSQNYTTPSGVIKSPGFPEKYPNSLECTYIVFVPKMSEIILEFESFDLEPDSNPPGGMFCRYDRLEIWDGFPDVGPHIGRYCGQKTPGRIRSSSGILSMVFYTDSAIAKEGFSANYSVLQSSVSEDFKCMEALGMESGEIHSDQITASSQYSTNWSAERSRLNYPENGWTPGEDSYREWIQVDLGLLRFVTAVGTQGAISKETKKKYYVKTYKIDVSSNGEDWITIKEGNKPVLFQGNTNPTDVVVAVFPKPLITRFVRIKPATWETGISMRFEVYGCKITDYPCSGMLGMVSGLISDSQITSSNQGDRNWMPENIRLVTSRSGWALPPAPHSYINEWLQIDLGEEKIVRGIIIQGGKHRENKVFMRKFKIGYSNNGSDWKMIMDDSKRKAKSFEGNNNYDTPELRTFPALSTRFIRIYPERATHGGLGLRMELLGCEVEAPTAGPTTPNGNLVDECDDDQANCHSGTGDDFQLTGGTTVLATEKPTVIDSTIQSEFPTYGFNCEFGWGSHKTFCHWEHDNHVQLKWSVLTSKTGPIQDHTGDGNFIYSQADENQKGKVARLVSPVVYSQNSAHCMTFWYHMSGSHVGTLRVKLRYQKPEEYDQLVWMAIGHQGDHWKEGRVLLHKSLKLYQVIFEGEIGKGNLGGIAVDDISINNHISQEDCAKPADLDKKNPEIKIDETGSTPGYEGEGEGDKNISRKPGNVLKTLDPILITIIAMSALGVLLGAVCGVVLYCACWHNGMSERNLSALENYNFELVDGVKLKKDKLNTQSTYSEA

SMILES | IC50
COCc1cccc(-c2csc(C(C)(O)c3ccccc3)n2)c1 (configuration not stated) | > 100 µM (inactive)
CC(=O)NCCNc1nc(NC(C)C)nc2ccsc12 | > 100 µM (inactive)
CN(C)Cc1cc(C(F)(F)F)ccc1C(O)(c1ccccc1)c1ccccc1 | > 100 µM (inactive)
C=CCNC(=O)c1onc(CSc2ccc(F)c(F)c2)c1C(=O)NCC=C | > 100 µM (inactive)
N/C(CSc1ccc(Cl)cc1)=N\S(=O)(=O)c1ccc(Cl)cc1 | > 100 µM (inactive)
O=C(O)c1ccc(C(=O)Nc2cccc3ccccc23)c(C(=O)O)c1 | inactive
CC(NCCOCCOc1ccccc1)c1ccccc1 (configuration not stated) | > 100 µM (inactive)
Cn1c(=NC(=O)COc2ccccc2)sc2ccccc21 | > 100 µM (inactive)
O=C(NCc1ccccc1)C(c1cccnc1)N(C(=O)c1ccccn1)c1ccccc1F (configuration not stated) | > 100 µM (inactive)
O=C(O)c1ccccc1SCC(=O)N1CCCCC1 | > 100 µM (inactive)
Cc1cccc(CN2CCN(C3CN(Cc4cn(Cc5cccc(Cl)c5)nn4)S(=O)(=O)C3)CC2)c1 (configuration not stated) | > 100 µM (inactive)
Cc1ccc(-n2c(-c3ccco3)nc3c(cnn3-c3ccc(C)cc3)c2=O)cc1 | > 100 µM (inactive)
NCCCC[C@H]1CN=C(N)N1CCC12CC3CC(CC(C3)C1)C2 | inactive
CCCCn1nnnc1C(c1cc2ccccc2o1)N(C)Cc1ccc(Cl)c(Cl)c1 (configuration not stated) | 12.7 µM
CC1(C(=O)NCc2cccc3ccccc23)CCN1Cc1cccc2c1OCO2 (configuration not stated) | > 100 µM (inactive)
Cc1ccccc1Nc1cc(=O)oc2ccccc12 | > 100 µM (inactive)
CC(C)(C)OC(=O)N1CCN(C(=O)c2[nH]cnc2C(=O)NCc2ccccc2)CC1 | > 100 µM (inactive)
NC(=O)C1CCN(c2nc(-c3ccc4occc(=O)c4c3)cs2)CC1 | > 100 µM (inactive)
Cc1ccc(Cn2c(C(C)Nc3nc(-c4ccc(Cl)c([N+](=O)[O-])c4)cs3)nc3cc(C(F)(F)F)ccc32)cc1 (configuration not stated) | > 100 µM (inactive)
N#Cc1ccc(COC(=O)c2cnc(Cl)c(Cl)c2)cc1 | > 100 µM (inactive)
COc1ccc(/C=N/NC(=O)c2cc(C(C)(C)C)[nH]n2)cc1COc1ccc(F)cc1F | > 100 µM (inactive)
O=C(OCn1nnc2ccccc2c1=O)c1ccc(Br)o1 | > 100 µM (inactive)
Cc1nc(Nc2ccc(S(N)(=O)=O)cc2)oc1C | inactive

SMILES | IC50
Cc1ccc(NNS(=O)(=O)c2ccc(C)cc2)cc1 | > 100 µM (inactive)
Cc1cc(C)n(-c2nnc3n2N=C(c2c[nH]c4ccccc24)CS3)n1 | > 100 µM (inactive)
CCOc1c2ccc(C(=O)NCCc3cccs3)cc2nn1CC | > 100 µM (inactive)
CCOC(=O)C1=CCN(S(=O)(=O)c2ccccc2Br)C1c1ccccc1 (configuration not stated) | > 100 µM (inactive)
C=CCN1C(=O)C2(C(C(=O)OCC)=C(N)Oc3ccccc32)c2c1c1ccccc1oc2=O (configuration not stated) | > 100 µM (inactive)
COc1ccc(NC(=O)CN(C)CC(=O)Nc2cccc(F)c2)cc1Cl | inactive
O=[N+]([O-])c1cc(-c2csc(NCCc3nc4cc(C(F)(F)F)ccc4n3CCCO)n2)ccc1Cl | > 100 µM (inactive)
O=C(Nc1ccc(N2CCOCC2)cc1)c1cc(-n2cnnc2)ccc1Cl | > 100 µM (inactive)
CSCCC(NC(=O)c1ccc(Cl)cc1Cl)C(=O)NCC(c1cccs1)N(C)C (configuration not stated) | > 100 µM (inactive)
Cc1cc(C)n2c(Nc3ccc4c(c3)OCCO4)c(-c3ccccn3)nc2n1 | > 100 µM (inactive)
CCC1C2Cc3ccc(O)cc3C1(CC)CCN2C (configuration not stated) | > 100 µM (inactive)
COC(=O)c1cccc(NC(=S)NCCC2=CCCCC2)c1 | > 100 µM (inactive)
COc1ccc(-c2csc(Nc3cccnc3)n2)cc1 | > 100 µM (inactive)
C=CCn1c(SCC(=O)Nc2ncc(Cc3ccc(Br)cc3)s2)nnc1-c1ccncc1 | > 100 µM (inactive)
CCOc1ccc(/C=C2/Sc3ccc(C(=O)NCC4CCCO4)cc3N(C)C2=O)cc1OC (configuration not stated) | > 100 µM (inactive)
Cc1ccc(C(=O)Nc2nnc([C@H]3C[C@H](O)[C@@H](CO)O3)s2)cc1 | > 100 µM (inactive)
O=C(Cn1cccc1C(=O)c1ccccc1)NCCC1=CCCCC1 | 7.12 µM
O=C(Cc1ccc(F)cc1)N1CCN=C1SCc1ccc([N+](=O)[O-])cc1 | > 100 µM (inactive)
COc1ccc(CCNC(=O)c2ccc(Cl)c(S(=O)(=O)N(C)c3ccccc3)c2)cc1 | > 100 µM (inactive)
NC(=O)C1CCCN(C(=O)c2ccc3nc(Cc4cccc(Cl)c4)oc3c2)C1 (configuration not stated) | 10.7 µM
CC(=O)Nc1ccc(Oc2cc(C#N)c(C#N)cc2N2CCOCC2)cc1 | > 100 µM (inactive)
CCOCCCNC(=O)C(c1ccc(C)cc1)N(Cc1cccs1)C(=O)c1ccccc1O (configuration not stated) | > 100 µM (inactive)

Same assay, conditions: NRP-1 b1b2 / RPARPAR peptide binding, FP or AlphaScreen; AlphaScreen, run 1; individual panel run IC50

SMILES | IC50
COCc1cccc(-c2csc(C(C)(O)c3ccccc3)n2)c1 (configuration not stated) | > 100 µM
CC(=O)NCCNc1nc(NC(C)C)nc2ccsc12 | > 100 µM
CN(C)Cc1cc(C(F)(F)F)ccc1C(O)(c1ccccc1)c1ccccc1 | > 100 µM
C=CCNC(=O)c1onc(CSc2ccc(F)c(F)c2)c1C(=O)NCC=C | > 100 µM
N/C(CSc1ccc(Cl)cc1)=N\S(=O)(=O)c1ccc(Cl)cc1 | > 100 µM
O=C(O)c1ccc(C(=O)Nc2cccc3ccccc23)c(C(=O)O)c1 | 49.3 µM
CC(NCCOCCOc1ccccc1)c1ccccc1 (configuration not stated) | > 100 µM
Cn1c(=NC(=O)COc2ccccc2)sc2ccccc21 | > 100 µM
O=C(NCc1ccccc1)C(c1cccnc1)N(C(=O)c1ccccn1)c1ccccc1F (configuration not stated) | > 100 µM
O=C(O)c1ccccc1SCC(=O)N1CCCCC1 | > 100 µM
Cc1cccc(CN2CCN(C3CN(Cc4cn(Cc5cccc(Cl)c5)nn4)S(=O)(=O)C3)CC2)c1 (configuration not stated) | > 100 µM
Cc1ccc(-n2c(-c3ccco3)nc3c(cnn3-c3ccc(C)cc3)c2=O)cc1 | > 100 µM
NCCCC[C@H]1CN=C(N)N1CCC12CC3CC(CC(C3)C1)C2 | 50.2 µM
CCCCn1nnnc1C(c1cc2ccccc2o1)N(C)Cc1ccc(Cl)c(Cl)c1 (configuration not stated) | 12.7 µM
CC1(C(=O)NCc2cccc3ccccc23)CCN1Cc1cccc2c1OCO2 (configuration not stated) | > 100 µM
Cc1ccccc1Nc1cc(=O)oc2ccccc12 | > 100 µM
CC(C)(C)OC(=O)N1CCN(C(=O)c2[nH]cnc2C(=O)NCc2ccccc2)CC1 | > 100 µM
NC(=O)C1CCN(c2nc(-c3ccc4occc(=O)c4c3)cs2)CC1 | > 100 µM
Cc1ccc(Cn2c(C(C)Nc3nc(-c4ccc(Cl)c([N+](=O)[O-])c4)cs3)nc3cc(C(F)(F)F)ccc32)cc1 (configuration not stated) | > 100 µM
N#Cc1ccc(COC(=O)c2cnc(Cl)c(Cl)c2)cc1 | > 100 µM
COc1ccc(/C=N/NC(=O)c2cc(C(C)(C)C)[nH]n2)cc1COc1ccc(F)cc1F | > 100 µM
O=C(OCn1nnc2ccccc2c1=O)c1ccc(Br)o1 | > 100 µM
Cc1nc(Nc2ccc(S(N)(=O)=O)cc2)oc1C | 73.1 µM

SMILES | IC50
Cc1ccc(NNS(=O)(=O)c2ccc(C)cc2)cc1 | > 100 µM
Cc1cc(C)n(-c2nnc3n2N=C(c2c[nH]c4ccccc24)CS3)n1 | > 100 µM
CCOc1c2ccc(C(=O)NCCc3cccs3)cc2nn1CC | > 100 µM
CCOC(=O)C1=CCN(S(=O)(=O)c2ccccc2Br)C1c1ccccc1 (configuration not stated) | > 100 µM
C=CCN1C(=O)C2(C(C(=O)OCC)=C(N)Oc3ccccc32)c2c1c1ccccc1oc2=O (configuration not stated) | > 100 µM
COc1ccc(NC(=O)CN(C)CC(=O)Nc2cccc(F)c2)cc1Cl | 35.5 µM
O=[N+]([O-])c1cc(-c2csc(NCCc3nc4cc(C(F)(F)F)ccc4n3CCCO)n2)ccc1Cl | > 100 µM
O=C(Nc1ccc(N2CCOCC2)cc1)c1cc(-n2cnnc2)ccc1Cl | > 100 µM
CSCCC(NC(=O)c1ccc(Cl)cc1Cl)C(=O)NCC(c1cccs1)N(C)C (configuration not stated) | > 100 µM
Cc1cc(C)n2c(Nc3ccc4c(c3)OCCO4)c(-c3ccccn3)nc2n1 | > 100 µM
CCC1C2Cc3ccc(O)cc3C1(CC)CCN2C (configuration not stated) | > 100 µM
COC(=O)c1cccc(NC(=S)NCCC2=CCCCC2)c1 | > 100 µM
COc1ccc(-c2csc(Nc3cccnc3)n2)cc1 | > 100 µM
C=CCn1c(SCC(=O)Nc2ncc(Cc3ccc(Br)cc3)s2)nnc1-c1ccncc1 | > 100 µM
CCOc1ccc(/C=C2/Sc3ccc(C(=O)NCC4CCCO4)cc3N(C)C2=O)cc1OC (configuration not stated) | > 100 µM
Cc1ccc(C(=O)Nc2nnc([C@H]3C[C@H](O)[C@@H](CO)O3)s2)cc1 | > 100 µM
O=C(Cn1cccc1C(=O)c1ccccc1)NCCC1=CCCCC1 | 7.12 µM
O=C(Cc1ccc(F)cc1)N1CCN=C1SCc1ccc([N+](=O)[O-])cc1 | > 100 µM
COc1ccc(CCNC(=O)c2ccc(Cl)c(S(=O)(=O)N(C)c3ccccc3)c2)cc1 | > 100 µM
NC(=O)C1CCCN(C(=O)c2ccc3nc(Cc4cccc(Cl)c4)oc3c2)C1 (configuration not stated) | 10.7 µM
CC(=O)Nc1ccc(Oc2cc(C#N)c(C#N)cc2N2CCOCC2)cc1 | > 100 µM
CCOCCCNC(=O)C(c1ccc(C)cc1)N(Cc1cccs1)C(=O)c1ccccc1O (configuration not stated) | > 100 µM

Same assay, conditions: NRP-1 b1b2 / RPARPAR peptide binding, FP or AlphaScreen; FP, mean of runs

SMILES | IC50
COCc1cccc(-c2csc(C(C)(O)c3ccccc3)n2)c1 (configuration not stated) | > 95 µM (inactive)
CC(=O)NCCNc1nc(NC(C)C)nc2ccsc12 | > 95 µM (inactive)
CN(C)Cc1cc(C(F)(F)F)ccc1C(O)(c1ccccc1)c1ccccc1 | > 95 µM (inactive)
C=CCNC(=O)c1onc(CSc2ccc(F)c(F)c2)c1C(=O)NCC=C | > 95 µM (inactive)
N/C(CSc1ccc(Cl)cc1)=N\S(=O)(=O)c1ccc(Cl)cc1 | > 95 µM (inactive)
O=C(O)c1ccc(C(=O)Nc2cccc3ccccc23)c(C(=O)O)c1 | > 95 µM (inactive)
CC(NCCOCCOc1ccccc1)c1ccccc1 (configuration not stated) | > 95 µM (inactive)
Cn1c(=NC(=O)COc2ccccc2)sc2ccccc21 | > 95 µM (inactive)
O=C(NCc1ccccc1)C(c1cccnc1)N(C(=O)c1ccccn1)c1ccccc1F (configuration not stated) | > 95 µM (inactive)
O=C(O)c1ccccc1SCC(=O)N1CCCCC1 | > 95 µM (inactive)
Cc1cccc(CN2CCN(C3CN(Cc4cn(Cc5cccc(Cl)c5)nn4)S(=O)(=O)C3)CC2)c1 (configuration not stated) | > 95 µM (inactive)
Cc1ccc(-n2c(-c3ccco3)nc3c(cnn3-c3ccc(C)cc3)c2=O)cc1 | inactive
NCCCC[C@H]1CN=C(N)N1CCC12CC3CC(CC(C3)C1)C2 | > 95 µM (inactive)
CCCCn1nnnc1C(c1cc2ccccc2o1)N(C)Cc1ccc(Cl)c(Cl)c1 (configuration not stated) | > 95 µM (inactive)
CC1(C(=O)NCc2cccc3ccccc23)CCN1Cc1cccc2c1OCO2 (configuration not stated) | > 95 µM (inactive)
Cc1ccccc1Nc1cc(=O)oc2ccccc12 | > 95 µM (inactive)
CC(C)(C)OC(=O)N1CCN(C(=O)c2[nH]cnc2C(=O)NCc2ccccc2)CC1 | > 95 µM (inactive)
NC(=O)C1CCN(c2nc(-c3ccc4occc(=O)c4c3)cs2)CC1 | > 95 µM (inactive)
Cc1ccc(Cn2c(C(C)Nc3nc(-c4ccc(Cl)c([N+](=O)[O-])c4)cs3)nc3cc(C(F)(F)F)ccc32)cc1 (configuration not stated) | > 95 µM (inactive)
N#Cc1ccc(COC(=O)c2cnc(Cl)c(Cl)c2)cc1 | > 95 µM (inactive)
COc1ccc(/C=N/NC(=O)c2cc(C(C)(C)C)[nH]n2)cc1COc1ccc(F)cc1F | > 95 µM (inactive)
O=C(OCn1nnc2ccccc2c1=O)c1ccc(Br)o1 | > 95 µM (inactive)
